One test relates to writhing. The test can be described thus: Acetic acid mouse writhing test (analgesic effects). The format is in vivo, mice (male CD-1). To be noted: for analgesic activity / analgesic/narcotic antagonist profile: in words; for analgesic/narcotic antagonist profile: from writhing ED50 and tail flick AD50 together. As for the experimental part:
(A) Analgesic effects upon mice (acetic acid writhing test).
TEST A. ACETIC ACID MOUSE WRITHING TEST
The analgesic effects of test compounds were determined in mice by use of the acetic acid writhing test described by B. J. R. Whittle, Brit. J. Pharmacol., 22:246 (1964). In this test at least three groups of five male CD-1 mice (18-22 g) each were given subcutaneous doses of the test drug dissolved in either distilled water or distilled water acidified with HCl depending on the solubility of the compound. In all cases, 0.4 milliliter of a 0.5% V/V acetic acid in distilled water solution was administered intraperitoneally 15 minutes post drug. The number of writhes in a 20 min. interval beginning 5 minutes after the acetic acid injection were determined and compared with the number of writhes in control groups which had received only acetic acid.
Percent inhibition of writhing was calculated as: [formula]
The ED50 dose, i.e., the dose required to reduce the number of writhes by 50%, was determined graphically from a plot of % inhibition as a probit versus log dose. Confidence limits of 95% were calculated on the basis of those results falling in the range 16-84% inhibition. See Litchfield, J. T. and Wilcoxon, F., J. Pharmacol. Exp. Ther., 96, 99-113, (1949).
On the technique in general: Writhing tests count abdominal constrictions after an irritant is injected.

In the next test the test system is morphine effect. As to the kind of experiment: Narcotic antagonist activity, modified rat tail flick test. In kind it is in vivo, rats (male albino Wistar). To be noted: for ED50: Rattus norvegicus, ip, read-out: AD50 (the source's name); for narcotic antagonist activity: in words. As for the experimental part:
(B) Narcotic antagonist activity in rats (modified rat tail flick test).
TEST B. EVALUATION OF NARCOTIC ANTAGONIST ACTIVITY
The narcotic antagonist effects of test compounds were determined by a modification of the rat tail flick procedure of Harris and Pierson (J. Pharmacol. Exp. Ther. 143,141 [1964]).
Male albino Wistar rats (100-120 g) were used for this study. A rat's tail is so placed so as to cover a photocell. Heat is applied by a lamp in a reflector with a timer being connected to the lamp and photocell so that the timer goes on when the light is turned on and is turned off when the photocell is uncovered. A rheostat, incorporated into a heating lamp is used to adjust the intensity of the light falling on the tail of the rat such that the rat's control reaction time is from two to four seconds. Animals with a control reaction time outside this range are rejected. The rheostat adjustment is made only if a significant proportion (more than 2 out of every 10 rats) of the reaction times are outside the range of two to four seconds. Groups of five rats were used each time, and two control times were determined at 60 and 30 minutes prior to subcutaneous injection of the drug.
Thirty minutes after the last control run the test drug was given intraperitoneally. This was followed ten minutes later by an ED80 dose of morphine subcutaneously. The animals were retested at 20 minutes after the morphine injection. Control animals were given vehicle and morphine only. The data were calculated as follows: [formula]
The data were plotted on log-probit paper and AD50 values, i.e., the dose required to inhibit the morphine effect by 50% within 95% confidence limits, were determined by the method of Litchfield and Wilcoxon.

[1] abbreviates: Mus musculus, sc, 0.25 h, mice, subcutaneous, acetic acid i.p. 15 minutes post drug, Table I, read-out: ED50.
Where [2] appears, read: rats, test drug i.p. 10 minutes before ED80 dose of morphine s.c., Table I.
[3] abbreviates: mice, subcutaneous, acetic acid i.p. 15 minutes post drug, Table I.

Where a name gives a salt, the structure may show the parent alone. Read-outs that look alike come from different tables or passages of the source.

With `COc1ccc2c3c1O[C@H]1C(=O)CC[C@H]4[C@@H](C2)N(CC2CC2)CC[C@]314` [TR-5095, 7,8-dihydro-17-cyclopropylmethylnorcodeinone, reference compound], the figures for the ED50 with writhing (setting [1]) and in the test with morphine effect (setting [2]) were 17 mg/kg and 3.4 mg/kg, respectively.
Turning to `Br.COc1ccc2c3c1O[C@H]1C(=O)CC[C@H]4[C@@H](C2)N(CC2CCC2)CC[C@]314` [TR-5108, 17-Cyclobutylmethyl-4,5α-epoxy-3-methoxymorphinan-6-one Hydrobromide, reference compound], the ED50 in the test on writhing (setting [1]) is 8.8 mg/kg. Besides, the AD50 entry with morphine effect (setting [2]) was “IA.3”.
For `CC[C@H]1CC(=O)[C@@H]2Oc3c(OC)ccc4c3[C@@]23CCN(CC2CC2)[C@H](C4)[C@H]13.Cl` [TR-5109, 17-Cyclopropylmethyl-4,5α-epoxy-8β-ethyl-3-methoxymorphinan-6-one Hydrochloride], the ED50 with writhing (setting [1]) came out at 2.1 mg/kg; with morphine effect (setting [2]), 0.78 mg/kg. Moreover, the analgesic activity result in the test on writhing is listed as “especially effective analgesics”. In addition, the narcotic antagonist activity entry in the test with morphine effect is “especially effective narcotic antagonists”.
With `CC[C@H]1CC(=O)[C@@H]2Oc3c(O)ccc4c3[C@@]23CCN(CC2CCC2)[C@H](C4)[C@H]13` [TR-5115, 17-Cyclobutylmethyl-4,5α-epoxy-8β-ethyl-3-hydroxymorphinan-6-one], the ED50 came out at 9.2 mg/kg with writhing (setting [1]) and 0.52 mg/kg with morphine effect (setting [2]). Moreover, the narcotic antagonist activity result with morphine effect is recorded as “especially effective narcotic antagonists”.
In the same order, the values of `CC[C@H]1CC(=O)[C@@H]2Oc3c(O)ccc4c3[C@@]23CCN(CC2CC2)[C@H](C4)[C@H]13` [TR-5126, 17-Cyclopropylmethyl-4,5α-epoxy-8β-ethyl-3-hydroxymorphinan-6-one] are 7.8 mg/kg, 0.25 mg/kg and “especially effective narcotic antagonists”.
With `C=CCN1CC[C@]23c4c5ccc(OC)c4O[C@H]2C(=O)C[C@H](CC)[C@H]3[C@H]1C5.Cl` [TR-5256, 17-Allyl-4,5α-epoxy-8β-ethyl-3-methoxymorphinan-6-one Hydrochloride], the analgesic/narcotic antagonist profile entry in the test on writhing is reported as “some mixed analgesic narcotic antagonist activity but is not particularly potent in either respect”. For the same molecule, the ED50 in the test on morphine effect (setting [2]) was found to be 5.6 mg/kg.
As to `C=CCN1CC[C@]23c4c5ccc(O)c4O[C@H]2C(=O)C[C@H](CC)[C@H]3[C@H]1C5.Cl` [TR-5266, 17-Allyl-4,5α-epoxy-8β-ethyl-3-hydroxymorphinan-6-one Hydrochloride], the analgesic activity entry in the test with writhing is listed as “except for TR-5266 they demonstrate analgesic activity”. Also, the ED50 result in the test on writhing (setting [3]) is “IA 10”; in the test on morphine effect (setting [2]) it was 0.58 mg/kg. Besides, the narcotic antagonist activity entry in the test with morphine effect is given as “especially effective narcotic antagonists”.
For `CC[C@H]1CC(=O)[C@@H]2Oc3c(O)ccc4c3[C@@]23CCN(CC2CCCO2)[C@H](C4)[C@H]13.Cl` (stereo partly drawn) [TR-5271, 4,5α-Epoxy-8β-ethyl-3-hydroxy-17-tetrahydrofurfuryl-morphinan-6-one Hydrochloride], the ED50 in the test with writhing (setting [1]) was 1.06 mg/kg; in the test on morphine effect (setting [2]) it was 1.8 mg/kg. For the same molecule, the analgesic activity entry with writhing is “especially effective analgesics”.
Take `COc1ccc2c3c1O[C@H]1C(=O)[C@@H](C)C[C@H]4[C@@H](C2)N(CC2CC2)CC[C@]314` [TR-5394, Hydrochloride]: the ED50 entry in the test with writhing (setting [3]) was “IA 10”; in the test on morphine effect (setting [2]), 1.6 mg/kg.
For `C[C@H]1C[C@H]2[C@H]3Cc4ccc(O)c5c4[C@@]2(CCN3CC2CC2)[C@@H](O5)C1=O` [TR-5402, 17-Cyclopropylmethyl-4,5α-epoxy-3-hydroxy-7α-methylmorphinan-6-one], the ED50 stood at 0.42 mg/kg in the test on writhing (setting [1]); 0.42 mg/kg in the test on writhing (Mus musculus, sc, agonist-antagonist potency, unit inferred, read-out: ED50); 1.63 mg/kg with morphine effect (agonist-antagonist potency, unit inferred). In addition, in the test on writhing, the analgesic/narcotic antagonist profile result is recorded as “mixed analgesics/narcotic antagonists”.
For `COc1ccc2c3c1O[C@H]1C(=O)[C@@H](C)C[C@H]4[C@@H](C2)N(CC2CCC2)CC[C@]314.Cl` [TR-5403, 17-Cyclobutylmethyl-4,5α-epoxy-3-methoxy-7α-methylmorphinan-6-one Hydrochloride], the ED50 was 9 mg/kg with writhing (setting [1]) and 16.5 mg/kg in the test with morphine effect (rats, vs morphine, *Estimated).
For `C[C@H]1C[C@H]2[C@H]3Cc4ccc(O)c5c4[C@@]2(CCN3CC2CCC2)[C@@H](O5)C1=O` [TR-5404, 17-Cyclobutylmethyl-4,5α-epoxy-3-hydroxy-7α-methylmorphinan-6-one Hydrochloride], the ED50 in the test on writhing (setting [1]) stood at 0.3 mg/kg; in the test on morphine effect (setting [2]), 13.2 mg/kg.
As for `COc1ccc2c3c1O[C@H]1C(=O)[C@@H](C)[C@H](C)[C@H]4[C@@H](C2)N(CC2CC2)CC[C@@]341` [TR-5410, 17-Cyclopropylmethyl-7α,8β-dimethyl-4,5-epoxy-3-methoxymorphinan-6-one Hydrochloride], the ED50 in the test on writhing (setting [1]) was over 10 mg/kg; in the test on morphine effect (setting [2]), 0.98 mg/kg.
For `C[C@@H]1[C@H]2[C@H]3Cc4ccc(O)c5c4[C@@]2(CCN3CC2CC2)[C@@H](O5)C(=O)[C@H]1C.Cl` [TR-5416, 17-Cyclopropylmethyl-7α,8β-dimethyl-4,5α-epoxy-3-hydroxymorphinan-6-one Hydrochloride], the analgesic/narcotic antagonist profile result in the test with writhing is “pure narcotic antagonist”. Moreover, the ED50 result with writhing (setting [3]) was “IA 10”; in the test with morphine effect (setting [2]), 0.57 mg/kg.
Consider `CC[C@@H]1CC(=O)[C@@H]2Oc3c(OC)ccc4c3[C@@]23CCN(CC2CC2)[C@H](C4)[C@H]13.O=C(O)C(O)C(O)C(=O)O` [TR-5427, 17-Cyclopropylmethyl-4,5α-epoxy-8α-ethyl-3-methoxymorphinan-6-one Tartrate], for which the ED50 in the test on writhing (setting [1]) and with morphine effect (setting [2]) was over 10 mg/kg in each case.
With `CC[C@@H]1CC(=O)[C@@H]2Oc3c(OC)ccc4c3[C@@]23CCN(CC2CCC2)[C@H](C4)[C@H]13.O=C(O)C(O)C(O)C(=O)O` [TR-5428, 17-Cyclobutylmethyl-4,5α-epoxy-8α-ethyl-3-methoxymorphinan-6-one Tartrate], the ED50 entry in the test with writhing (setting [3]) was “IA 10”. In addition, the AD50 entry in the test with morphine effect (setting [2]) was “IA 10”.
For the molecule `COc1ccc2c3c1O[C@H]1C(=O)[C@@H](C)[C@H](C)[C@H]4[C@@H](C2)N(CC2CCC2)CC[C@@]341` [TR-5429, 17-Cyclobutylmethyl-7α,8β-dimethyl-4,5α-epoxy-3-methoxymorphinan-6-one], the ED50 in the test with writhing (setting [1]) was over 10 mg/kg; in the test with morphine effect (setting [2]), about 10 mg/kg.
On to `C[C@@H]1[C@H]2[C@H]3Cc4ccc(O)c5c4[C@@]2(CCN3CC2CCC2)[C@@H](O5)C(=O)[C@H]1C` [TR-5430, 17-Cyclobutylmethyl-7α,8β-dimethyl-4,5α-epoxy-3-hydroxymorphinan-6-one], for which the ED50 is 5.8 mg/kg in the test on writhing (setting [1]) and 2.5 mg/kg with morphine effect (setting [2]). Besides, the analgesic/narcotic antagonist profile result in the test on writhing was “mixed analgesics/narcotic antagonists”.
As for `CC[C@@H]1CC(=O)[C@@H]2Oc3c(O)ccc4c3[C@@]23CCN(CC2CC2)[C@H](C4)[C@H]13.Cl` [TR-5436, 17-Cyclopropylmethyl-4,5α-epoxy-8α-ethyl-3-hydroxymorphinan-6-one Hydrochloride], the ED50 in the test on writhing (setting [1]) amounted to 0.36 mg/kg. Besides, in the test on writhing, the analgesic activity result is recorded as “strong analgesic” and the analgesic/narcotic antagonist profile entry is “mixed analgesic/narcotic antagonist”. Besides, the ED50 in the test with morphine effect (setting [2]) turned out to be 4.1 mg/kg. Besides, the narcotic antagonist activity result in the test with morphine effect is recorded as “also exhibits narcotic antagonist activity”.
Turning to `CC[C@@H]1CC(=O)[C@@H]2Oc3c(O)ccc4c3[C@@]23CCN(CC2CCC2)[C@H](C4)[C@H]13.Cl` [TR-5437, 17-Cyclobutylmethyl-4,5α-epoxy-8α-ethyl-3-hydroxymorphinan-6-one Hydrochloride], the ED50 was 0.15 mg/kg in the test on writhing (setting [1]) and over 10 mg/kg with morphine effect (setting [2]). For the same molecule, in the test on writhing, the analgesic/narcotic antagonist profile entry is given as “pure analgesic”.

Source of the values: patent publication US4272541A, “7,8 and 7-8 Substituted 4,5α-epoxymorphinan-6-one compounds, and methods of treating pain and drug dependence with them” (Miles Laboratories, Inc., priority 1979, dated 1981).
